Source: patent US7019021B2, “Compounds and methods for treating urinary incontinence” (Boehringer Ingelheim Pharma GmbH & Co. KG, priority 1995, dated 2006)

Test system: urethra
Experiment: Intraluminal pressure of the urethra in the anaesthetised rabbit
Type: in vivo
Conditions: i.v.; for Contraction of the urethra / Duration of effect (contraction of the urethra): female Japanese white rabbits, urethane anaesthesia, phenylephrine 30 μg/kg vs Example 2 10 μg/kg, phenylephrine = 100
Description: Female Japanese white rabbits (weighing 3.0 to 3.5 kg) are anaesthetised with urethane (1 g/kg i.p.). A polyethylene cannula is inserted in the urinary bladder by means of a small incision. The changes in the intraluminal pressure are recorded by means of balloon in the urethra which contains about 1.5 ml of water at 37° C.

[1] = rabbit, 10 μg/kg Example 2 vs 30 μg/kg phenylephrine, factor

SMILES	Contraction of the urethra	Duration of effect (contraction of the urethra)	duration of effect (contraction of the urethra), longer by a factor compared with phenylephrine [1]	potency with regard to the contraction of the urethra, higher by a factor compared with phenylephrine [1]
Cc1c(N(C)C)ccc(Br)c1N=C1NCCN1 [Example 2, 2-(6-Bromo-3-dimethylamino-2-methylphenylimino)imidazolidine]	273%	430%	4.3	2.73
CNC[C@H](O)c1cccc(O)c1 [Phenylephrine, phenylephrine]	100%	100%		
